Assay results: ChEMBL document CHEMBL5696442, “Discovery of type II inhibitors of TGFβ-activated kinase 1 (TAK1) and mitogen-activated protein kinase kinase kinase kinase 2 (MAP4K2)” (J Med Chem, 2015)
Active and inactive are the calls of the source. The calls are words filed in the database; no cut-off is given here.

Columns and labels:
[1] = target: Ribosomal protein S6 kinase alpha-3 (Homo sapiens) (UniProt P51812); experiment: Inhibition of RSK2 domain1 ATP labeling site in human Huh-7 cell lysate at 1 uM by KiNativ Profiling analysis relative to control; format: subcellular
Chain of Ribosomal protein S6 kinase alpha-3 (Homo sapiens) (P51812 whole entry, the tested form may be a part): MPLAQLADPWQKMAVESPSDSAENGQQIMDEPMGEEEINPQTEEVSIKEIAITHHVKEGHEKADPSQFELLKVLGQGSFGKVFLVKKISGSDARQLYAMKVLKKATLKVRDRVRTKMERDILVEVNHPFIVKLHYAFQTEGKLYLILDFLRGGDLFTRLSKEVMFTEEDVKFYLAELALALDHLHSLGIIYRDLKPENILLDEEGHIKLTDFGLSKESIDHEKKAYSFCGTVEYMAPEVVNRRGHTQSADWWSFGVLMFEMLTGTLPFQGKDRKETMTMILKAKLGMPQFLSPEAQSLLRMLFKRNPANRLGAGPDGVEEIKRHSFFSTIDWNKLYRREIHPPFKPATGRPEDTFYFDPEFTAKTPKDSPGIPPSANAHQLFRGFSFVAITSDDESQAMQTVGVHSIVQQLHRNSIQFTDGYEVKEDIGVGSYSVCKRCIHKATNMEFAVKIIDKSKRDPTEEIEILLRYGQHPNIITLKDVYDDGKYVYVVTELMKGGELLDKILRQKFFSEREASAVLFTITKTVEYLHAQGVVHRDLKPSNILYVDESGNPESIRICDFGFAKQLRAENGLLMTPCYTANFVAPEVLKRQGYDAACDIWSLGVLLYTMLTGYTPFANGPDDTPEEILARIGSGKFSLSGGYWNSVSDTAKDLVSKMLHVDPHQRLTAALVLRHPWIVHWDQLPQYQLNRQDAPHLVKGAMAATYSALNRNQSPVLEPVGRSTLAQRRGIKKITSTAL

[2] = target: T1, Mitogen-activated protein kinase 12 (Homo sapiens) (UniProt P53778); experiment: Inhibition of p38gamma Lys2 labeling site in human Huh-7 cells at 1 uM by KiNativ Profiling analysis relative to control; format: cell-based
T1 sequence (whole entry): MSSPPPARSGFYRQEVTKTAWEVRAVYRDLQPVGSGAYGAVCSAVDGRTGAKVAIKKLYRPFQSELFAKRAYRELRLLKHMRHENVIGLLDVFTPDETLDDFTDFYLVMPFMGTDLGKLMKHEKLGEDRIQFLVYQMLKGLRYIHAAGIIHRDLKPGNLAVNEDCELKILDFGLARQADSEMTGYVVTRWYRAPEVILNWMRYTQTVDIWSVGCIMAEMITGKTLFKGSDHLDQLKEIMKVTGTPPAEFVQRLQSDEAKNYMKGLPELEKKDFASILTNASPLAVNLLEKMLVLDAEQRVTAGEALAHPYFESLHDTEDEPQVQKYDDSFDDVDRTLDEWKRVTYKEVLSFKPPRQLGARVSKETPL

[3] = target: Serine/threonine-protein kinase Nek7 (Homo sapiens) (UniProt Q8TDX7); experiment: Inhibition of NEK7 ACT labeling site in human A-375 cells at 0.5 uM by KiNativ Profiling analysis relative to control; format: cell-based
Chain of Serine/threonine-protein kinase Nek7 (Homo sapiens) (Q8TDX7 whole entry, looked up): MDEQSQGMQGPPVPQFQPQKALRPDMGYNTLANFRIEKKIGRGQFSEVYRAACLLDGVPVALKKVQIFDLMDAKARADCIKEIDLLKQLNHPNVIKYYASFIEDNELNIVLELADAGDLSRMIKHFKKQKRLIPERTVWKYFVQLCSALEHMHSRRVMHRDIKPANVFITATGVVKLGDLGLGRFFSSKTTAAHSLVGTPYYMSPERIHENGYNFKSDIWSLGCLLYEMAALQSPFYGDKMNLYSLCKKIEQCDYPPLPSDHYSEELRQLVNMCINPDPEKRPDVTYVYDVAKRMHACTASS

[4] = target: Serine/threonine-protein kinase/endoribonuclease IRE1 (Homo sapiens) (UniProt O75460); experiment: Inhibition of IRE1 Lys2 labeling site in human A-375 cells at 0.05 uM by KiNativ Profiling analysis relative to control; format: cell-based
Chain of Serine/threonine-protein kinase/endoribonuclease IRE1 (Homo sapiens) (O75460 19-977 limits assumed): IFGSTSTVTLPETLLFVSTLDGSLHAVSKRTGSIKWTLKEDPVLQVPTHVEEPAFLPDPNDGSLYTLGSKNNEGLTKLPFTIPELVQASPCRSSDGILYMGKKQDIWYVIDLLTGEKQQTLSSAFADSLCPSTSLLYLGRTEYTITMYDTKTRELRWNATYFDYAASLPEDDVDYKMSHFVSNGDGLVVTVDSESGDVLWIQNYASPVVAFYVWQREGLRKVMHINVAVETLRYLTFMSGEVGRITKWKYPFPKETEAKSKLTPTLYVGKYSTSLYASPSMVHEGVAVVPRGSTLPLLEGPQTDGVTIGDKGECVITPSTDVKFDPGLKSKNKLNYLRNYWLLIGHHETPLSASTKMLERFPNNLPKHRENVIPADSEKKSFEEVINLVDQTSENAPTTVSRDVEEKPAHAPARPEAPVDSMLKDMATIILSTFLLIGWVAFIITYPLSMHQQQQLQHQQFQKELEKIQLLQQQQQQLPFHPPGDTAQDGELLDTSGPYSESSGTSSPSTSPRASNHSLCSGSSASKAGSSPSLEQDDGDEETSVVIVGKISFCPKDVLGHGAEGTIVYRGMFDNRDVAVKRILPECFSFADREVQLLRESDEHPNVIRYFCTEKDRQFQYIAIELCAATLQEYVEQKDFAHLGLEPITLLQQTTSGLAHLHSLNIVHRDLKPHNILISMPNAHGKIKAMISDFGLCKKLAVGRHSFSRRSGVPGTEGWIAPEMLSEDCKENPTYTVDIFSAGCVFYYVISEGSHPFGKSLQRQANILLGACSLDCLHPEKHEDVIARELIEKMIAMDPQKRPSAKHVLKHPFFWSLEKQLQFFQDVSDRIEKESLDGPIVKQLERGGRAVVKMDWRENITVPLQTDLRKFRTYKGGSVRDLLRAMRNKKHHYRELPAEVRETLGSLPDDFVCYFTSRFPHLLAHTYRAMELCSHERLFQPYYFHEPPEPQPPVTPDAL

[5] = target: T2, Serine/threonine-protein kinase D1 (Homo sapiens) (UniProt Q15139); experiment: Inhibition of PRKD1 (unknown origin) at 10 uM by Ambit Kinomescan binding assay
T2 sequence (whole entry): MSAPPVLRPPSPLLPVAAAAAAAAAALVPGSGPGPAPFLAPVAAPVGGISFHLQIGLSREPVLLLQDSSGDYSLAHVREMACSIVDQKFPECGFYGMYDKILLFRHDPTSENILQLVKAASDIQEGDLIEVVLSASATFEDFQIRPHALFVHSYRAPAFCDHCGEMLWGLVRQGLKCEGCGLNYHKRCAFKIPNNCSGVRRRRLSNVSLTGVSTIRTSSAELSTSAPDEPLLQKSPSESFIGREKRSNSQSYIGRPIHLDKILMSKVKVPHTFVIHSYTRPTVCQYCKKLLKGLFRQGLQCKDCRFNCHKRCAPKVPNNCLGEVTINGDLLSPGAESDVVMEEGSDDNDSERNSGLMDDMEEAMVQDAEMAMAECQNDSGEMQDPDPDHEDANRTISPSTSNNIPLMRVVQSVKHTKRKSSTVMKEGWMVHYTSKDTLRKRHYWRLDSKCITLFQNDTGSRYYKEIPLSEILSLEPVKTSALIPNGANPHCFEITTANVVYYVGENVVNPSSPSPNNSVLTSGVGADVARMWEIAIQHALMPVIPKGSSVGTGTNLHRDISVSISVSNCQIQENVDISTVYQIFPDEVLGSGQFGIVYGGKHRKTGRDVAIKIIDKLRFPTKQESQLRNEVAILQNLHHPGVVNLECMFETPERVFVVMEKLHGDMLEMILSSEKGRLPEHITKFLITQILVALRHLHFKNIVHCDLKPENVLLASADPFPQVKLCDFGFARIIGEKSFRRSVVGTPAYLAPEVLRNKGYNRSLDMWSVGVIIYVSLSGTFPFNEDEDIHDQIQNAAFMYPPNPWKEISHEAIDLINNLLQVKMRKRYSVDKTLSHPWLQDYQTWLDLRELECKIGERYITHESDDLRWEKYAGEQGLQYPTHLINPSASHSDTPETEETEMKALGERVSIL

[6] = target: Mitogen-activated protein kinase kinase kinase 11 (Homo sapiens) (UniProt Q16584); experiment: Inhibition of MLK3 (unknown origin) at 1 uM by Ambit Kinomescan binding assay relative to control
Chain of Mitogen-activated protein kinase kinase kinase 11 (Homo sapiens) (Q16584 whole entry, looked up): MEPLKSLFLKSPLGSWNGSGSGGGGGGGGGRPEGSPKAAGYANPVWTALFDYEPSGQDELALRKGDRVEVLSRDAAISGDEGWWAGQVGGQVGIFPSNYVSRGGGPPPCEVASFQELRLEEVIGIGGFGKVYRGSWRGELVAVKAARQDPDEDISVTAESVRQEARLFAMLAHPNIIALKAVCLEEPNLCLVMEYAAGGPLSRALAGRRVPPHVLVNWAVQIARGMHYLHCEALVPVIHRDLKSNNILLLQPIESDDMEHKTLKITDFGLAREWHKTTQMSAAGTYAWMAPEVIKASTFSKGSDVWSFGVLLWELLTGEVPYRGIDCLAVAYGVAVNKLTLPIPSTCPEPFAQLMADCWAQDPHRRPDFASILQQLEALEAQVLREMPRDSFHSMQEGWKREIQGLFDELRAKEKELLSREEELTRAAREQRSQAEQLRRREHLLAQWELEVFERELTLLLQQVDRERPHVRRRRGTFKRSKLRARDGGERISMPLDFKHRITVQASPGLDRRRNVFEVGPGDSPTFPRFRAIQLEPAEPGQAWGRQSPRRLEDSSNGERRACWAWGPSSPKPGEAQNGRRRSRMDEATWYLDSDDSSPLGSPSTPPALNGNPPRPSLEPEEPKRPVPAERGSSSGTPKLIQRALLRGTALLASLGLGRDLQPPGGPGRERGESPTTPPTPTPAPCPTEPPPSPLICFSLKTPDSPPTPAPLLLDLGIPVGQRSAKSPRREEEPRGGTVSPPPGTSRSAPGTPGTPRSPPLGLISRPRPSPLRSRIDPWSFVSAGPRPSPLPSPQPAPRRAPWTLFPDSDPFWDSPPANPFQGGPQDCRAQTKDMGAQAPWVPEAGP

[7] = target: T3, Serine/threonine-protein kinase Nek1 (Homo sapiens) (UniProt Q96PY6); experiment: Inhibition of NEK1 (unknown origin) at 1 uM by Ambit Kinomescan binding assay relative to control; values are per cent of control
T3 sequence (whole entry): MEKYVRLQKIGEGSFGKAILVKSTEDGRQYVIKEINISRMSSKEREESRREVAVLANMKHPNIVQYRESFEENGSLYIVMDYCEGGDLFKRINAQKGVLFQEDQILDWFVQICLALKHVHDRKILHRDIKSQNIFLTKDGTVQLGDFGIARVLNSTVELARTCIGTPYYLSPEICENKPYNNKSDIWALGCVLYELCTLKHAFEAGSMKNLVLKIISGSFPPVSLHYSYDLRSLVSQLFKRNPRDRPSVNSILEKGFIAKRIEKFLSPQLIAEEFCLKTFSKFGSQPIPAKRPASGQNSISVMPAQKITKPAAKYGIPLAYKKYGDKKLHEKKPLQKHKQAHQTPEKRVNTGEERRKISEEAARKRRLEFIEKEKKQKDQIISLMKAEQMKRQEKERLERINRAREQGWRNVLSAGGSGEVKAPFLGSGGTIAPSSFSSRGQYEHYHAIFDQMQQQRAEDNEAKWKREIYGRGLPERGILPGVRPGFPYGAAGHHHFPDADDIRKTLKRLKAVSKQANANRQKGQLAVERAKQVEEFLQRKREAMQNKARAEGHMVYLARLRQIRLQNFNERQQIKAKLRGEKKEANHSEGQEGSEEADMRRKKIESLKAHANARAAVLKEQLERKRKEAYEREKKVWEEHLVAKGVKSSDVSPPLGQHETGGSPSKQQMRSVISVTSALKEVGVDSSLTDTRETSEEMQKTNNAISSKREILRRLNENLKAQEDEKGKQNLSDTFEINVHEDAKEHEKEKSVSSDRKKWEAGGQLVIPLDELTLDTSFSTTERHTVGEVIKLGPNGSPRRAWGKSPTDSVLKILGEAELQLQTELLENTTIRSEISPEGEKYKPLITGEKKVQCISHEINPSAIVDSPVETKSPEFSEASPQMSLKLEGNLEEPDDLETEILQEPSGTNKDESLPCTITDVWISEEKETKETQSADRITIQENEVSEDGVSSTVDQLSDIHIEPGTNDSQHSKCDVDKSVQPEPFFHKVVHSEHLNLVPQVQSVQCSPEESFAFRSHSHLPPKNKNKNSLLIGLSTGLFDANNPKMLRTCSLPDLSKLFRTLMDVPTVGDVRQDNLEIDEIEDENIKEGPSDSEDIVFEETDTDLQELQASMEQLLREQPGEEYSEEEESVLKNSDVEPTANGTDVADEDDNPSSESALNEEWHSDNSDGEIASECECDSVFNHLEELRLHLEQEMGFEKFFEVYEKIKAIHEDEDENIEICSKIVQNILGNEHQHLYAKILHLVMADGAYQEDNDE

Structure (SMILES): CNc1cc(Oc2cc(C(=O)Nc3cc(N4CCN(C)CC4)cc(C(F)(F)F)c3)ccc2C)ncn1
- inhibition [1]: -2.6%
- inhibition [2]: 13%

Structure (SMILES): CCN1CCN(Cc2ccc(NC(=O)c3ccc(C)c(Oc4ccnc5[nH]ccc45)c3)cc2C(F)(F)F)CC1
- inhibition [3]: 1.6%
- inhibition [4]: 15.9%
- inhibition [5]: inactive

Structure (SMILES): CCN1CCN(Cc2ccc(NC(=O)c3ccc(C)c(/C=C/c4cnc5[nH]ccc5c4OC)c3)cc2C(F)(F)F)CC1
- inhibition [6]: 23%
- residual activity [7]: 83%
